Assay results as given in patent US12723063B2, “GIPR-agonist compounds” (Eli Lilly and Company, priority 2019, dated 2026).
*1 amine or outer side, *2 acyl side, *3 side chain or, on linkers, in order; H or OH if unused. Where a SMILES comes first, the peptide text is derived from it. Side-chain parts run from the residue outwards. [ ]: non-standard residue; d: D form. The star is where a group is joined. C20 diacid = O=C(O)CCCCCCCCCCCCCCCCCCC(=O)*; γGlu = O=C(O)[C@H](CCC(=O)[*:2])N[*:1]; αMeF = C[C@](N)(Cc1ccccc1)C(=O)O; 4Pal = N[C@@H](Cc1ccncc1)C(=O)O; αMeL = CC(C)C[C@](C)(N)C(=O)O; AEEA = NCCOCCOCC(=O)O; Aib = CC(C)(N)C(=O)O

Legend:
[1] = target: T1, human glucose-dependent insulinotropic peptide receptor (GIPR) (Homo sapiens, UniProt P48546); assay: cAMP functional assay (HTRF) in HEK293 cells in presence of 0.1% casein; format: cell-based; details: HEK293 cells expressing human GIPR, geometric mean, read-out: hGIPR cAMP Rel EC50 nM (SEM, n)
T1 construct: expressed in transfected cells; host or cells: HEK293
T1 sequence (P48546 22-466): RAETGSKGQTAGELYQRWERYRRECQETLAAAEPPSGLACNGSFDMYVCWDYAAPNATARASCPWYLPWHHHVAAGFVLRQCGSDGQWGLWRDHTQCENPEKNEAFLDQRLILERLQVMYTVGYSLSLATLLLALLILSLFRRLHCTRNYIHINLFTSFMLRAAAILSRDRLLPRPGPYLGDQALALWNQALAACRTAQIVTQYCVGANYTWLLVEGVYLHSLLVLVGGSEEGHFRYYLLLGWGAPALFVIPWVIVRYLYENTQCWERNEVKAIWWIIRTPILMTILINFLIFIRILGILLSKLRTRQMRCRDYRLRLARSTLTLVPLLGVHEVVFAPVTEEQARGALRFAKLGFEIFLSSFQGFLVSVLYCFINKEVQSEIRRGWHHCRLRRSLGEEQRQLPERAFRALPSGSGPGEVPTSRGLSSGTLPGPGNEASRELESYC

[2] = target: T2, human GIPR (Homo sapiens, UniProt P48546); assay: [125I]-GIP binding, SPA with WGA beads, 0.1% bacitracin; details: geometric mean, read-out: hGIPR Ki
T2 construct: expressed in transfected cells; crude membranes
T2 sequence (P48546 22-466): T1 sequence (P48546 22-466)
Outline: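 Ki values are geometric means (SEM, n independent days), derived from four-parameter nonlinear regression of IC50. Membranes came from hGIPR-expressing CHO cells.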

Compound: CC[C@H](C)[C@H](NC(=O)[C@H](Cc1ccccc1)NC(=O)[C@@H](NC(=O)CNC(=O)[C@H](CCC(=O)O)NC(=O)C(C)(C)NC(=O)[C@@H](N)Cc1ccc(O)cc1)[C@@H](C)O)C(=O)N[C@@H](CO)C(=O)N[C@@H](CC(=O)O)C(=O)N[C@@H](Cc1ccc(O)cc1)C(=O)N[C@@H](CO)C(=O)N[C@H](C(=O)N[C@@](C)(CC(C)C)C(=O)N[C@@H](CC(C)C)C(=O)N[C@@H](CC(=O)O)C(=O)N[C@@H](CCCCN)C(=O)N[C@@H](CCCCNC(=O)COCCOCCNC(=O)COCCOCCNC(=O)CC[C@H](NC(=O)CCCCCCCCCCCCCCCCCCC(=O)O)C(=O)O)C(=O)N[C@@H](Cc1c[nH]cn1)C(=O)N[C@@H](CCC(N)=O)C(=O)NC(C)(C)C(=O)N[C@@H](CC(=O)O)C(=O)N[C@@](C)(Cc1ccccc1)C(=O)N[C@H](C(=O)N[C@@H](CCC(=O)O)C(=O)N[C@@H](Cc1ccncc1)C(=O)N[C@@H](CC(C)C)C(=O)N[C@@H](CC(C)C)C(=O)N[C@@H](C)C(=O)NCC(=O)NCC(=O)N1CCC[C@H]1C(=O)N[C@@H](CO)C(=O)N[C@@H](CO)C(=O)NCC(=O)N[C@@H](C)C(=O)N1CCC[C@H]1C(=O)N1CCC[C@H]1C(=O)N1CCC[C@H]1C(=O)N[C@@H](CO)C(N)=O)C(C)C)[C@@H](C)CC [Example 56]
- EC50 [1]: 0.0169 nM
- Ki [2]: 0.0487 nM

Compound: CC[C@H](C)[C@H](NC(=O)[C@H](Cc1ccccc1)NC(=O)[C@@H](NC(=O)CNC(=O)[C@H](CCC(=O)O)NC(=O)C(C)(C)NC(=O)[C@@H](N)Cc1ccc(O)cc1)[C@@H](C)O)C(=O)N[C@@H](CO)C(=O)N[C@@H](CC(=O)O)C(=O)N[C@@H](Cc1ccc(O)cc1)C(=O)N[C@@H](CO)C(=O)N[C@H](C(=O)N[C@@](C)(CC(C)C)C(=O)N[C@@H](CC(C)C)C(=O)N[C@@H](CC(=O)O)C(=O)N[C@@H](CCCCN)C(=O)N[C@@H](CCCCNC(=O)COCCOCCNC(=O)COCCOCCNC(=O)CC[C@H](NC(=O)CCCCCCCCCCCCCCCCCCC(=O)O)C(=O)O)C(=O)N[C@@H](Cc1c[nH]cn1)C(=O)N[C@@H](CCC(N)=O)C(=O)NC(C)(C)C(=O)N[C@@H](CCC(=O)O)C(=O)N[C@@H](Cc1ccccc1)C(=O)N[C@H](C(=O)N[C@@H](CCC(=O)O)C(=O)N[C@@H](Cc1ccncc1)C(=O)N[C@@H](CC(C)C)C(=O)N[C@@H](CC(C)C)C(=O)N[C@@H](C)C(=O)N[C@@H](CCC(N)=O)C(=O)NCC(=O)N1CCC[C@H]1C(=O)N[C@@H](CO)C(=O)N[C@@H](CO)C(=O)NCC(=O)N[C@@H](C)C(=O)N1CCC[C@H]1C(=O)N1CCC[C@H]1C(=O)N1CCC[C@H]1C(=O)N[C@@H](CO)C(N)=O)C(C)C)[C@@H](C)CC [Example 57] (H-Y[Aib]EGTFISDYSI[αMeL]LDKK([AEEA-AEEA-γGlu-C20 diacid])HQ[Aib]EFVE[4Pal]LLAQGPSSGAPPPS-NH2)
- EC50 [1]: 0.0177 nM
- Ki [2]: 0.0154 nM

Compound: CC[C@H](C)[C@H](NC(=O)[C@H](Cc1ccccc1)NC(=O)[C@@H](NC(=O)CNC(=O)[C@H](CCC(=O)O)NC(=O)C(C)(C)NC(=O)[C@@H](N)Cc1ccc(O)cc1)[C@@H](C)O)C(=O)N[C@@H](CO)C(=O)N[C@@H](CC(=O)O)C(=O)N[C@@H](Cc1ccc(O)cc1)C(=O)N[C@@H](CO)C(=O)N[C@H](C(=O)N[C@@](C)(CC(C)C)C(=O)N[C@@H](CC(C)C)C(=O)N[C@@H](CC(=O)O)C(=O)N[C@@H](CCCCN)C(=O)N[C@@H](CCCCNC(=O)COCCOCCNC(=O)COCCOCCNC(=O)CC[C@H](NC(=O)CCCCCCCCCCCCCCCCCCC(=O)O)C(=O)O)C(=O)N[C@@H](Cc1c[nH]cn1)C(=O)N[C@@H](CCC(N)=O)C(=O)NC(C)(C)C(=O)N[C@@H](CCC(=O)O)C(=O)N[C@@H](Cc1ccccc1)C(=O)N[C@H](C(=O)N[C@@H](CCC(=O)O)C(=O)N[C@@H](Cc1ccncc1)C(=O)N[C@@H](CC(C)C)C(=O)N[C@@H](CC(C)C)C(=O)N[C@@H](C)C(=O)N[C@H](C(=O)NCC(=O)N1CCC[C@H]1C(=O)N[C@@H](CO)C(=O)N[C@@H](CO)C(=O)NCC(=O)N[C@@H](C)C(=O)N1CCC[C@H]1C(=O)N1CCC[C@H]1C(=O)N1CCC[C@H]1C(=O)N[C@@H](CO)C(N)=O)[C@@H](C)O)C(C)C)[C@@H](C)CC [Example 58] (H-Y[Aib]EGTFISDYSI[αMeL]LDKK([AEEA-AEEA-γGlu-C20 diacid])HQ[Aib]EFVE[4Pal]LLATGPSSGAPPPS-NH2)
- EC50 [1]: 0.0183 nM
- Ki [2]: 0.0324 nM

Compound: CC[C@H](C)[C@H](NC(=O)[C@H](Cc1ccccc1)NC(=O)[C@@H](NC(=O)CNC(=O)[C@H](CCC(=O)O)NC(=O)C(C)(C)NC(=O)[C@@H](N)Cc1ccc(O)cc1)[C@@H](C)O)C(=O)N[C@@H](CO)C(=O)N[C@@H](CC(=O)O)C(=O)N[C@@H](Cc1ccc(O)cc1)C(=O)N[C@@H](CO)C(=O)N[C@H](C(=O)N[C@@](C)(CC(C)C)C(=O)N[C@@H](CC(C)C)C(=O)N[C@@H](CC(=O)O)C(=O)N[C@@H](CCCCN)C(=O)N[C@@H](CCCCNC(=O)COCCOCCNC(=O)COCCOCCNC(=O)CC[C@H](NC(=O)CCCCCCCCCCCCCCCCCCC(=O)O)C(=O)O)C(=O)N[C@@H](Cc1c[nH]cn1)C(=O)N[C@@H](CCC(N)=O)C(=O)NC(C)(C)C(=O)N[C@@H](CCC(=O)O)C(=O)N[C@@H](Cc1ccccc1)C(=O)N[C@H](C(=O)N[C@@H](CCC(=O)O)C(=O)N[C@@H](Cc1ccncc1)C(=O)N[C@@H](CC(C)C)C(=O)N[C@@H](CC(C)C)C(=O)N[C@@H](C)C(=O)N[C@@H](C)C(=O)NCC(=O)N1CCC[C@H]1C(=O)N[C@@H](CO)C(=O)N[C@@H](CO)C(=O)NCC(=O)N[C@@H](C)C(=O)N1CCC[C@H]1C(=O)N1CCC[C@H]1C(=O)N1CCC[C@H]1C(=O)N[C@@H](CO)C(N)=O)C(C)C)[C@@H](C)CC [Example 59]
- EC50 [1]: 0.0202 nM
- Ki [2]: 0.0148 nM

Compound: CC[C@H](C)[C@H](NC(=O)[C@H](CO)NC(=O)[C@H](Cc1ccc(O)cc1)NC(=O)[C@H](CC(=O)O)NC(=O)[C@H](CO)NC(=O)[C@@H](NC(=O)[C@](C)(Cc1ccccc1)NC(=O)[C@@H](NC(=O)CNC(=O)[C@H](CCC(=O)O)NC(=O)C(C)(C)NC(=O)[C@@H](N)Cc1ccc(O)cc1)[C@@H](C)O)[C@@H](C)CC)C(=O)N[C@@](C)(CC(C)C)C(=O)N[C@@H](CC(C)C)C(=O)N[C@@H](CC(=O)O)C(=O)N[C@@H](CCCCN)C(=O)N[C@@H](CCCCNC(=O)COCCOCCNC(=O)COCCOCCNC(=O)CC[C@H](NC(=O)CCCCCCCCCCCCCCCCCCC(=O)O)C(=O)O)C(=O)N[C@@H](Cc1c[nH]cn1)C(=O)N[C@@H](CCC(N)=O)C(=O)NC(C)(C)C(=O)N[C@@H](CCC(=O)O)C(=O)N[C@@H](Cc1ccccc1)C(=O)N[C@H](C(=O)N[C@@H](CCC(=O)O)C(=O)N[C@@H](Cc1ccncc1)C(=O)N[C@@H](CC(C)C)C(=O)N[C@@H](CC(C)C)C(=O)N[C@@H](C)C(=O)N[C@@H](CCC(N)=O)C(=O)NCC(=O)N1CCC[C@H]1C(=O)N[C@@H](CO)C(=O)N[C@@H](CO)C(=O)NCC(=O)N[C@@H](C)C(=O)N1CCC[C@H]1C(=O)N1CCC[C@H]1C(=O)N1CCC[C@H]1C(=O)N[C@@H](CO)C(N)=O)C(C)C [Example 60] (H-Y[Aib]EGT[αMeF]ISDYSI[αMeL]LDKK([AEEA-AEEA-γGlu-C20 diacid])HQ[Aib]EFVE[4Pal]LLAQGPSSGAPPPS-NH2)
- EC50 [1]: 0.0369 nM
- Ki [2]: 0.039 nM

Compound: CC[C@H](C)[C@H](NC(=O)[C@H](CO)NC(=O)[C@H](Cc1ccc(O)cc1)NC(=O)[C@H](CC(=O)O)NC(=O)[C@H](CO)NC(=O)[C@@H](NC(=O)[C@](C)(Cc1ccccc1)NC(=O)[C@@H](NC(=O)CNC(=O)[C@H](CCC(=O)O)NC(=O)C(C)(C)NC(=O)[C@@H](N)Cc1ccc(O)cc1)[C@@H](C)O)[C@@H](C)CC)C(=O)N[C@@](C)(CC(C)C)C(=O)N[C@@H](CC(C)C)C(=O)N[C@@H](CC(=O)O)C(=O)N[C@@H](CCCCN)C(=O)N[C@@H](CCCCNC(=O)COCCOCCNC(=O)COCCOCCNC(=O)CC[C@H](NC(=O)CCCCCCCCCCCCCCCCCCC(=O)O)C(=O)O)C(=O)N[C@@H](Cc1c[nH]cn1)C(=O)N[C@@H](CCC(N)=O)C(=O)NC(C)(C)C(=O)N[C@@H](CCC(=O)O)C(=O)N[C@@H](Cc1ccccc1)C(=O)N[C@H](C(=O)N[C@@H](CCC(=O)O)C(=O)N[C@@H](Cc1ccncc1)C(=O)N[C@@H](CC(C)C)C(=O)N[C@@H](CC(C)C)C(=O)N[C@@H](C)C(=O)N[C@H](C(=O)NCC(=O)N1CCC[C@H]1C(=O)N[C@@H](CO)C(=O)N[C@@H](CO)C(=O)NCC(=O)N[C@@H](C)C(=O)N1CCC[C@H]1C(=O)N1CCC[C@H]1C(=O)N1CCC[C@H]1C(=O)N[C@@H](CO)C(N)=O)[C@@H](C)O)C(C)C [Example 61] (H-Y[Aib]EGT[αMeF]ISDYSI[αMeL]LDKK([AEEA-AEEA-γGlu-C20 diacid])HQ[Aib]EFVE[4Pal]LLATGPSSGAPPPS-NH2)
- EC50 [1]: 0.0167 nM
- Ki [2]: 0.0665 nM
